Measurements as given in article PMC9194530, “Interaction of Colchicine-Site Ligands With the Blood Cell-Specific Isotype of β-Tubulin—Notable Affinity for Benzimidazoles” (Frontiers in Cell and Developmental Biology, 2022).
Like-named read-outs stand apart in the source and are kept apart here.

How the values were obtained:
[1] = molecular target: T1, BTb, colchicine site (Bos taurus, UniProt Q6B856); test: Single-point MDL competitive binding inhibition screen, brain tubulin; parameters: species or system bovine or rat
T1 construct: from tissue; host or cells: mammalian brain: either rat brain (purified in house) or bovine brain (bought from Cytoskeleton #HTS02-A or Sigma-Aldrich #T4925)

[2] = molecular target: CeTb, colchicine site (Gallus gallus, UniProt P09207); test: Single-point MDL competitive binding inhibition screen, erythrocyte tubulin; parameters: species or system chicken (Gallus gallus); settings: for inhibition at 50 µM: read-out: CeTb % (inhibition of MDL binding)
[3] = molecular target: T2, Brain tubulin (BTb), colchicine site (Bos taurus, UniProt Q6B856); test: Competition titration with MDL (fluorescence), brain tubulin; assay type: binding, bovine or rat; settings: competition titration, 1 µM tubulin, 5 µM MDL, nb = no binding detected; for Brain tubulin (BTb) Kd: calculated with Equation 4
T2 construct: from tissue; host or cells: mammalian brain: either rat brain (purified in house) or bovine brain (bought from Cytoskeleton #HTS02-A or Sigma-Aldrich #T4925)

[4] = molecular target: Erythrocyte tubulin (CeTb), colchicine site (Gallus gallus, UniProt P09207); test: biochemical; assay type: binding, chicken (Gallus gallus)
[5] = 50 µM drug, 1 µM tubulin, 5 µM MDL, single point, read-out: BTb % (inhibition of MDL binding)
[6] = from single-point data (50 µM drug) fitted with single-site isotherm, Eq. 4, read-out: BTb Kd(app)
[7] = 50 µM drug, 1 µM tubulin, 5 µM MDL, single point
[8] = from single-point data (50 µM drug) fitted with single-site isotherm, Eq. 4, read-out: CeTb Kd(app)
[9] = competition titration, 1 µM tubulin, 5 µM MDL
[10] = competition titration, 1 µM tubulin, 5 µM MDL, calculated with Equation 4, read-out: Erythrocyte tubulin (CeTb) Kd

C[C@H]1CCC/C=C/C(=O)c2c(O)cc(O)cc2CC(=O)O1 [Dehydrocurvularin]
inhibition at 50 µM [1, 5]: 2% | Kd [1, 6]: 234 µM | CeTb % (inhibition of MDL binding) [2, 7]: 1% | Kd [2, 8]: 1870 µM

CCC[C@H](Nc1nc(-c2ccc(NC(=O)NCC)c(OC)c2)ncc1C)c1cccnc1 [Lexibulin]
Kd [1]: 1.1 µM | inhibition at 50 µM [1, 5]: 80% | Kd [2]: 268 µM | CeTb % (inhibition of MDL binding) [2, 7]: 6%

COC(=O)Nc1nc2ccc(Sc3ccccc3)cc2[nH]1 [Fenbendazole]
inhibition at 50 µM [1, 5]: 12% | Kd [1, 6]: 33 µM | CeTb % (inhibition of MDL binding) [2, 7]: 39% | Kd [2, 8]: 26 µM

CCCOc1ccc2nc(NC(=O)OC)[nH]c2c1 [Oxibendazole]
Brain tubulin (BTb) Kd [3]: nb | Brain tubulin (BTb) Kd ([3]; listed as oxibendazole): no detectable binding | Brain tubulin (BTb) IC50 [3]: nb | IC50 [4, 9]: 36 ± 5.6 µM | Kd [4, 10]: 12 ± 1.9 µM | Kd ([4]; summary of competition titrations with MDL, read-out: Erythrocyte tubulin (CeTb) Kd (Table 4, selected drugs)): 12 µM | BTb % (inhibition of MDL binding) [1, 7]: <1% | BTb % (inhibition of MDL binding) ([1]; 50 µM drug, 1 µM tubulin, 5 µM MDL, single point, listed as oxibendazole): < 10% | CeTb % (inhibition of MDL binding) [2, 7]: 56% | Kd [2, 8]: 13 µM

COc1ccc(CCc2cc(OC)c(OC)c(OC)c2)cc1O [Dyhydro CS A4, dihydrocombretastatin-A4]
BTb % (inhibition of MDL binding) [1, 7]: 46% | Kd [1, 6]: 5.3 µM | CeTb % (inhibition of MDL binding) [2, 7]: 10% | Kd [2, 8]: 153 µM

Tryprostatin
BTb % (inhibition of MDL binding) [1, 7]: <1% | CeTb % (inhibition of MDL binding) [2, 7]: <1%

COc1cc2c(c(N)c1OC)C(=O)/C(=C\c1cc(C)c(O)c(C)c1)C2 [Indanocine]
inhibition at 50 µM [1, 5]: 57% | Kd [1, 6]: 3.4 µM | CeTb % (inhibition of MDL binding) [2, 7]: 50%

CCOC(=O)Nc1ccc(SC[C@@H]2CO[C@@](Cn3ccnc3)(c3ccc(Cl)cc3Cl)O2)cc1 [Tubulazole T]
BTb % (inhibition of MDL binding) [1, 7]: <1% | CeTb % (inhibition of MDL binding) [2, 7]: 12% | Kd [2, 8]: 124 µM

COc1cc([C@@H]2c3[nH]c4ccccc4c3C[C@H]3COC(=O)N32)cc(OC)c1O [Azatoxin]
BTb % (inhibition of MDL binding) [1]: <1% | CeTb % (inhibition of MDL binding) [2]: 4% | Kd ([2]; read-out: CeTb Kd(app)): 416 µM

CCCCNC(=O)n1c(NC(=O)OC)nc2ccccc21 [Benomyl]
Kd [1, 6]: 8.8 µM | inhibition at 50 µM ([1]; read-out: BTb % (inhibition of MDL binding), 50 µM drug, 1 µM tubulin, 5 µM MDL, single point): 34% | Kd [2, 8]: 20 µM | inhibition at 50 µM [2]: 45%

COc1c2c(cc3c1-c1ccc(OC)c(=O)cc1C(NC(C)=O)CC3)OCO2 (stereo not shown) [Cornigerine]
Kd [2]: 30 µM

CC1CCCCCC(=O)c2c(O)cc(O)cc2CC(=O)O1 (stereo not shown) [Curvularin]
inhibition at 50 µM [1, 5]: < 1% | inhibition at 50 µM [2, 7]: < 1%

Oc1ccc(/C=C/c2cc(O)cc(O)c2)cc1 [Resveratrol]
CeTb % (inhibition of MDL binding) [2, 7]: 4%

COc1ccc(/C=C\c2cc(OC)c(OC)c(OC)c2)cc1O [CS-A4 trans, combretastatin-A4 (trans)]
CeTb % (inhibition of MDL binding) [2, 7]: 7%

allocolchicine ethyl ketone [Allo ethyl ketone]
BTb % (inhibition of MDL binding) [1, 7]: 92% | Kd [1, 6]: 0.39 µM | CeTb % (inhibition of MDL binding) [2, 7]: 89% | Kd [2, 8]: 2.1 µM

CC(C)=CCC/C(C)=C/CC/C(C)=C/Cc1c(O)c2ccccc2oc1=O [Ferulenol]
BTb % (inhibition of MDL binding) [1, 7]: 10% | Kd [1, 6]: 41 µM | CeTb % (inhibition of MDL binding) [2, 7]: 2% | Kd [2, 8]: 872 µM

COC(=O)Nc1nc2ccccc2[nH]1 [Carbendazim]
Brain tubulin (BTb) Kd [3]: nb | Brain tubulin (BTb) Kd ([3]; listed as carbendazim): no detectable binding | Brain tubulin (BTb) IC50 [3]: nb | IC50 [4, 9]: 37 ± 5.4 µM | Kd [4, 10]: 13 ± 1.8 µM | Kd [2, 8]: 12 µM | inhibition at 50 µM [2]: 58%

CCC[S+]([O-])c1ccc2[nH]c(NC(=O)OC)nc2c1 (stereo not shown) [Ricobendazole]
BTb % (inhibition of MDL binding) [1, 7]: 8% | inhibition at 50 µM [1, 5]: < 10% | Kd [1, 6]: 52 µM | CeTb % (inhibition of MDL binding) [2, 7]: 27% | Kd [2, 8]: 45 µM

COc1cc2c(cc1O)CC[C@@H]1[C@@H]2CC[C@]2(C)[C@@H](O)CC[C@@H]12 [2-methoxyestradiol (2-ME), 2-methoxyestradiol]
BTb % (inhibition of MDL binding) [1, 7]: 12% | Kd [1, 6]: 33 µM | CeTb % (inhibition of MDL binding) [2, 7]: 1% | Kd [2, 8]: 1870 µM
